Values after ≈ are worked out from the molar mass of the structure shown.
Columns and labels:
[1] = target: purified human 20S proteasome (CT-L activity) (Homo sapiens, UniProt P28074); assay: Proteasomal CT-L activity measurement with Suc-LLVY-AMC; type: biochemical; conditions: for IC50: Suc-LLVY-AMC substrate, 37° C., 30 min
Procedure: (§1) Proteasomal activity measurement: The fluorogenic substrates Suc-LLVY-AMC, Z-ARR-AMC, and Z-LLE-AMC were used to measure CT-L, T-L and casp-L proteasome activities, respectively. Assays were carried out in black, clear bottom 96 well plates in a 200 μL reaction volume containing 1 nM of purified human 20S proteasome in 50 mM Tris-HCL pH 7.5 and 0.03% SDS containing 50 IM fluorogenic substrate at 37° C. The rate of cleavage of fluorogenic peptide substrates was determined by monitoring the fluorescence of released aminomethylcoumarin using a SpectraMax M5e multiwall plate reader at an excitation wavelength of 380 nm and emission wavelength of 460 nm. Fluo-rescence was measured every minute over a period of 30 minutes and the maximum increase in fluorescence per minute was used to calculate specific activities of each sample.
Compounds were screened in vitro using purified human 20S proteasome and the fluorogenic peptide substrate, Suc-LLVY-AMC, as the substrate for CT-L activity as described herein.
The mechanism by which quinoline 7 inhibits the proteasome was investigated using Michaelis-Menton analysis to determine of KM and Vmax and then further illustrated using a Lineweaver-Burk double reciprocal plot of the kinetic data. Kinetic analysis of CT-L activity of purified 20S particles indicate that when the substrate (Suc-LLVY-AMC) concentration was increased incrementally and measurements were taken at five different concentrations of compound 7 or vehicle, the Vmax of the CT-L activity decreases and the KM increases, with the increasing concentration of […].

Kinetic solubility assay = type: physicochemical; conditions: phosphate buffered saline with 1% DMSO, aqueous buffer, kinetic from dmso stock; estimated kinetic solubility, phosphate buffered saline pH 7.4, 1% DMSO, 2 hours at 37° C., absorbance 620 nm
Procedure: Seven three-fold dilutions from 300 μM were prepared in phosphate buffered saline (ph=7.4) and 1% DMSO. Each concentration for each compound was tested three times (n=3). The compounds were incubated for 2 hours at 37° C. and the absorbance at 620 nm was evaluated for each dilution.

[2] = target: purified human 20S proteasome (casp-L activity) (Homo sapiens, UniProt P28072); assay: Proteasomal casp-L activity measurement with Z-LLE-AMC; type: biochemical; conditions: Z-LLE-AMC substrate
Procedure: as §1
Quinoline 7 was subsequently evaluated for its inhibition of the proteasome's tryptic (b2)-like and caspase (b1)-like activity in vitro using purified human 20S proteasome and the following fluorogenic peptide as substrates: Boc-LRR-AMC (substrate for T-L activity) and Z-LLE-AMC (substrate for casp-L activity).

HeLa NF-κB-luc cells = assay: NF-κB-luc reporter assay, TNF-α stimulated; type: cell-based; conditions: Homo sapiens, 30 min pretreatment, TNF-α 25 ng/mL, 8 h, Steady-Glo luciferase, read-out: IC50, NF-κB mediated gene transcription
Procedure: NF-κB-luc reporter assay: HeLa NF-κB-luc cells (5.0×10^5 cells/mL) were seeded into a 96-well white opaque plate using DMEM medium supplemented with 5% fetal bovine serum, 500 U/mL penicillin, 100 μg/mL streptomycin, 1 mM sodium pyruvate, 0.2 mM L-glutamine, and 100 Ig/mL hygromycin B. After 24 h the cell culture medium was replaced with DMEM medium supplemented with 100 U/mL penicillin and 100 Ig/mL streptomycin. Cell cultures were pretreated with vehicle (1% DMSO), 50 IMpeptide aldehyde MG-132 (positive control) or quinoline (final concentrations were 50, 25, 12.5, 6.25, 3.13 and 1.56 IM) for 30 min at 37° C. in 5% CO2. TNF-α was added to a final concentration of 25 ng/mL and the samples were further incubated for 8 h at 37° C. in 5% CO2. […] The luminescence of each well was measured using a Veritas microplate luminometer. […] The data was analyzed using GraphPad Prism 4.0. The data was normalized to TNF-α activation and the EC50 values were calculated using the equation for the sigmodial curve for variable slope.
In order to evaluate whether the inhibition of proteasome activity translated in cell culture, we evaluated compound 7 for inhibition of NE-KB regulation. […] In order to determine if quinoline 7 affects NE-KB mediated gene transcription, we evaluated quinoline 7 in HeLa NE-KB-luc cells. […]

[3] = Microsome (S9 fraction) stability assay; type: in vitro ADME; conditions: mouse S9 fraction 0.25 mg/mL, 3 μM compound, NADPH, LC-MS/MS

SMILES	IC50 [1] [µM]	solubility at 2 h (Kinetic solubility assay) [µM]	Compound remaining after 30 min in mouse S9 [3] [%]	further results
Cc1cc(C)c2cc(-c3ccccc3)cnc2c1 [Compound 4, 5,7-Dimethyl-3-phenylquinoline]	23.6	–	–	–
Cc1ccc2nc(C)c(-c3ccccc3)cc2c1 [Compound 5, 2,6-Dimethyl-3-phenylquinoline]	19.2	–	–	–
Cc1cc(C)c2cc(-c3ccccc3)c(C)nc2c1 [Compound 6, 2,5,7-trimethyl-3-phenylquinoline]	15.3	–	–	–
Cc1cc(C)c2cc(C3=CCCCC3)c(C)nc2c1 [Compound 7, 3-cyclohexenyl-2,5,7-trimethylquinoline]	14.4	38.1 (≈ 9.58 µg/mL)	18	IC50 [2]: 17.7 µM; Mechanism of inhibition (Michaelis-Menton / Lineweaver-Burk analysis) ([1]; Suc-LLVY-AMC varied, five concentrations of compound, Vmax decreases, KM increases): mixed-type inhibition; IC50 (HeLa NF-κB-luc cells): 12.1 µM
CCc1nc2cc(C)cc(C)c2cc1C1=CCCCC1 [Compound 8, 2-Ethyl-3-cyclohexenyl-5,7-dimethylquinoline]	19.9	–	–	–
Cc1cc(C)c2cc(C3=CCCCC3)cnc2c1 [Compound 9, 3-Cyclohexenyl-5,7-dimethylquinoline]	13.8	–	–	–
Cc1cc(C)c2cc(C3CCCCC3)c(C)nc2c1 [Compound 11]	8.2	129 (≈ 32.6 µg/mL)	100	–
Cc1nc2ccc(Br)cc2cc1C1=CCCCC1 [Compound 16, 6-Bromo-3-cyclohexenyl-2-methylquinoline]	9.9	–	–	–
Cc1ccc2nc(C)c(C3=CCCCC3)cc2c1 [Compound 19, 3-Cyclohexenyl-2,6-dimethylquinoline]	8.5	–	–	–
CCCCc1ccc2nc(C)c(C3=CCCCC3)cc2c1 [Compound 20, 6-Butyl-3-cyclohexenyl-2-methylquinoline]	7.6	14.5 (≈ 4.05 µg/mL)	12	–
CN(C)c1ccc2ncc(C3=CCCCC3)cc2c1 [Compound 21, 3-Cyclohexenyl-6-(N,N-dimethylamino)quinoline]	6.3	–	–	–
Cc1nc2ccc(N(C)C)cc2cc1C1=CCCCC1 [Compound 22, 3-Cyclohexenyl-2-methyl-6-(N,N-dimethylamino) quinoline]	6.1	–	–	–
CCc1nc2ccc(N(C)C)cc2cc1C1=CCCCC1 [Compound 23, 3-Cyclohexenyl-2-ethyl-6(N,N-dimethylamino)quinoline]	5.6	27.4 (≈ 7.68 µg/mL)	5	–
Cc1nc2ccc(N3CCCCC3)cc2cc1C1=CCCCC1 [Compound 25, 3-Cyclohexenyl-2-methyl-6-piperidinylquinoline]	5.4	–	–	–
COc1cc2nc(C)c(C3=CCCCC3)cc2c(OC)c1OC [Compound 27, 3-Cyclohexenyl-5,6,7-trimethoxy-2-methylquinoline]	15.6	–	–	–
CN(C)c1ccc2ncc(C3CCCCC3)cc2c1 [Compound 28, 3-Cyclohexyl-6-(N,N-dimethylamino)quinoline]	5.5	–	–	–
Cc1nc2ccc(N(C)C)cc2cc1C1CCCCC1 [Compound 29, 3-Cyclohexyl-2-methyl-6-(N,N-dimethylamino) quinoline]	6.7	138 (≈ 37.1 µg/mL)	4	–
Cc1nc2ccc(C(C)C)cc2cc1C1=CCCCC1 [Compound 30, 3-Cyclohexenyl-6-isopropyl-2-methylquinoline]	7.8	11.7 (≈ 3.11 µg/mL)	6	–
CCc1cc2cc(N(C)C)ccc2nc1CC [Compound 33, 2,3-Diethyl-N,N-dimethylquinoline]	18.7	–	–	–
Cc1nc2ccc(N(C)C)cc2cc1-c1ccccc1 [Compound 34, 2-methyl-3-phenyl-6-(N,N-dimethylamino) quinoline]	10	121 (≈ 31.9 µg/mL)	>100	–
CCCCc1ccc2nc(C)c(-c3ccccc3)cc2c1 [Compound 36, 6-Butyl-2-methyl-3-phenylquinoline]	21.6	–	–	–

Source: patent US12084421B2, “Quinoline-based proteasome inhibitors and uses thereof” (Board of Trustees of Michigan State University, priority 2017, dated 2024)
